Consider four compounds from US6468989B1, “Gel compositions containing metronidazole” (Dow Pharmaceutical Sciences, priority 2000, dated 2002).

The nature of series [1]: Solubility of imidazole compounds in purified water, 4% HPCD and 4% HECD. The class given is physicochemical. As to the method: Six sample solutions were prepared as described in Example 1 except as follows. Two groups of three sample solutions each were prepared. […] The solubility of each of the samples was determined as shown in Table 5 and was compared to the solubility of the imidazole in purified water without a solubility enhancer.

Series [2] is described as follows: Solubilization of metronidazole by HPCD, niacinamide and their combination (visual, 1 week storage). The class given is physicochemical. As for the experimental part:
HPCD and niacinamide solutions were prepared and the concentrations of each to obtain a stable 1% metronidazole solution at 5° C. were determined as 5% and 3%, respectively. Then various combinations of HPCD and niacinamide concentrations in aqueous solution containing 1% metronidazole were prepared as in Example 1.
In the combination solutions, HPCD concentration was in the range of 0% to 5% and the concentration range of niacinamide was 0% to 3%. The solutions were kept at room temperature and 5° C. for a week to assess the maintenance of the dissolved state.
For solubilization effects of HPCD and niacinamide combinations, the concentrations of HPCD and niacinamide were determined in 1% metronidazole solutions, which were clear with no precipitate. Metronidazole solubility was visually determined after a week storage. In order to evaluate the solubilization capacity of the HPCD and niacinamide combinations, the niacinamide concentration required to make 1.5% metronidazole in 5% HPCD solution was determined by keeping the solution at 5° C. for 1 week.

Series [3] in a line: Solubility of metronidazole in aqueous solutions with different HPCD concentrations, estimated by solution stability. In kind it is physicochemical. Particulars: 1-day storage at room temperature followed by 1-day storage at 5° C. As for the experimental part:
Various solutions of hydroxypropyl-beta-cyclodextrin (HPCD) were prepared by combining a quantity of HPCD in water to yield the desired concentration of HPCD between 1% w/w and 15% w/w. To each HPCD solution, an excess amount of metronidazole was added. The solutions were placed in a shaker bath at about 60° C. for about 2 hours or more. After shaking, the samples were permitted to cool to room temperature and were stored at 5° C. […]
In accordance with the invention, stable aqueous metronidazole at the following concentrations may be obtained with the following concentrations of HPCD as shown in Table 1 and FIG. 1.

The conditions of series [4]: cited from earlier work.

Read-outs that look alike come from different tables or passages of the source.

`CCC(C)n1ncn(-c2ccc(N3CCN(c4ccc(OCC5COC(Cn6cncn6)(c6ccc(Cl)cc6Cl)O5)cc4)CC3)cc2)c1=O` (stereo not shown) [Itraconazole, itraconazole]: in series [1], the “% w/w solubility” value was “less than 0.01 % w/w” and the “Increase in solubility versus purified water” value is on record as “not measurable”.

Regarding `CC(=O)N1CCN(c2ccc(OCC3COC(Cn4ccnc4)(c4ccc(Cl)cc4Cl)O3)cc2)CC1` (stereo not shown) [Ketoconazole, ketoconazole], the results for the “% w/w solubility” value in series [1], in series [1] (4% HECD) and in series [1] (4% HPCD) were “less than 0.01 % w/w”, 0.03-0.05 % w/w and 0.01-0.03 % w/w, respectively.

As to `Cc1ncc([N+](=O)[O-])n1CCO` [Metronidazole, 1-(2-hydroxyethyl)-2-methyl-5-nitroimidazole], in series [2] (5% HPCD), the “Niacinamide concentration that permitted a 1.5% metronidazole solution” value is given as 6%. In addition, the “Time the 1.5% metronidazole solution stayed clear with no precipitate” value in series [2] (5% HPCD and 6% niacinamide, 5° C.) turned out to be 1 week. The “Precipitation of 1.5% metronidazole solution” value in series [2] (5% HPCD, no niacinamide, room temperature) is on record as “showed a precipitate”. Besides, the “HPCD concentration required to make a stable 1% metronidazole aqueous solution” value in series [2] (HPCD alone, 5° C. for 1 week) came out at 5%. For the same compound, the “Precipitation of aqueous solution containing 1% metronidazole” value in series [2] (HPCD reduced to 4% or less, 5° C. for 1 week) was “showed a precipitation formation”; in series [2] (niacinamide reduced to 2% or less, 5° C. for 1 week), “showed a precipitation formation”. In addition, the “HPCD concentration giving a stable 1% MTZ solution” value in series [2] (in combination with 0.5% niacinamide) was 1.0%. The “Niacinamide concentration giving a stable 1% MTZ solution” value in series [2] (in combination with 1.0% HPCD) turned out to be 0.5%. Moreover, in series [2] (niacinamide alone, 5° C. for 1 week), the “Niacinamide concentration required to make 1% metronidazole aqueous solution” value worked out at 3%. Also, the Appearance of solution entry in series [1] (4% HECD and metronidazole solution) is “became yellow”; in series [1] (4% HPCD and metronidazole solution), “remained clear and colorless”. Also, the “Solubility of MTZ” value is 0.7 % w/w in series [3] (0.0 % w/w HPCD); 1.0 % w/w in series [3] (2.0 % w/w HPCD); 1.5 % w/w in series [3] (8.0 % w/w HPCD); 2.0 % w/w in series [3] (10.0 % w/w HPCD); 2.5 % w/w in series [3] (15.0 % w/w HPCD).

For the compound `C[C@H]1O[C@@H](O[C@H]2[C@@H](O)C[C@H](O[C@H]3[C@@H](O)C[C@H](O[C@H]4CC[C@@]5(C)[C@H](CC[C@@H]6[C@@H]5C[C@@H](O)[C@]5(C)[C@@H](C7=CC(=O)OC7)CC[C@]65O)C4)O[C@@H]3C)O[C@@H]2C)C[C@H](O)[C@@H]1O` [digoxin], the “Water solubility combined with BCD relative to combined with HPCD” value in series [4] is “five times more water soluble”.
